Experimental data published in ChEMBL document CHEMBL1145867, “Muraymycins, novel peptidoglycan biosynthesis inhibitors: synthesis and SAR of their analogues” (2003).
Converted amounts (≈) assume the structure as drawn. The source made the active and inactive calls. The calls are words filed in the database; no cut-off is given here.

Assays:
[1] = The inhibitory activity of compound against MraY or MurG at 12.5 ug/mL; Inhibit
[2] = The inhibitory activity of compound against MraY or MurG at 100 ug/mL; Inhibit
[3] = The inhibitory activity of compound against MraY or MurG at 25 ug/mL; Inhibit
[4] = The inhibitory activity of compound against MraY or MurG at 6.25 ug/mL; Inhibit
[5] = The inhibitory activity of compound against MraY or MurG at 50 ug/mL; Inhibit
Enterococcus faecalis [6] = assay: In vitro antimicrobial activity against Enterococcus faecalis GC 2242 at 10.7 ug/ml soluble peptidoglycan; type: functional
Staphylococcus aureus [7] = assay: In vitro antimicrobial activity against Staphylococcus aureus GC 2216 at 10.7 ug/ml soluble peptidoglycan; type: functional
[8] = The inhibitory activity of compound against MraY or MurG at 25 ug/mL; No Inhibition
[9] = The inhibitory activity of compound against MraY or MurG at 6.25 ug/mL; No Inhibition
Enterococcus faecalis [10] = assay: In vitro antimicrobial activity against Enterococcus faecalis GC 842 at 10.7 ug/ml soluble peptidoglycan; type: functional
Staphylococcus sp. [11] = assay: In vitro antimicrobial activity against Coagulase-negative staphylococcus GC 4538 at 10.7 ug/ml soluble peptidoglycan; type: functional
Bacteria = assay: In vitro antimicrobial activity against gram-negative organisms (10)
Staphylococcus aureus [12] = assay: In vitro antimicrobial activity against Staphylococcus aureus GC 1131 at 10.7 ug/ml soluble peptidoglycan; type: functional
Staphylococcus sp. [13] = assay: In vitro antimicrobial activity against CNS GC 4538 at 10.7 ug/ml soluble peptidoglycan; type: functional
Candida albicans [14] = assay: In vitro antimicrobial activity against Candida albicans […] at 10.7 ug/ml soluble peptidoglycan; type: functional
Enterococcus faecalis [15] = assay: In vitro antimicrobial activity against Enterococcus faecalis GC 4555 at 10.7 ug/ml soluble peptidoglycan; type: functional
[16] = The inhibitory activity of compound against MraY or MurG at 12.5 ug/mL; No Inhibition
Staphylococcus aureus [17] = assay: In vitro antimicrobial activity against Staphylococcus aureus GC 4536 at 10.7 ug/ml soluble peptidoglycan; type: functional
Staphylococcus sp. [18] = assay: In vitro antimicrobial activity against CNS GC 4547 at 10.7 ug/mL soluble peptidoglycan; type: functional
Enterococcus faecalis [19] = assay: In vitro antimicrobial activity against Enterococcus faecalis GC 842 at 32 ug/ml soluble peptidoglycan; type: functional
Staphylococcus aureus [20] = assay: In vitro antimicrobial activity against Staphylococcus aureus GC 2216 at 32 ug/ml soluble peptidoglycan; type: functional
Staphylococcus sp. [21] = assay: In vitro antimicrobial activity against CNS GC 4538 at 32 ug/ml soluble peptidoglycan; type: functional
Enterococcus faecalis [22] = assay: In vitro antimicrobial activity against Enterococcus faecalis GC 2242 at 32 ug/ml soluble peptidoglycan; type: functional
Staphylococcus aureus [23] = assay: In vitro antimicrobial activity against Staphylococcus aureus GC 1131 at 32 ug/ml soluble peptidoglycan; type: functional
Enterococcus faecalis [24] = assay: In vitro antimicrobial activity against Enterococcus faecalis GC 4555 at 32 ug/ml soluble peptidoglycan; type: functional
Staphylococcus sp. [25] = assay: In vitro antimicrobial activity against CNS GC 4547 at 32 ug/ml soluble peptidoglycan; type: functional
Staphylococcus aureus [26] = assay: In vitro antimicrobial activity against Staphylococcus aureus GC 4536 at 32 ug/ml soluble peptidoglycan; type: functional
Candida albicans [27] = assay: In vitro antimicrobial activity against Candida albicans […] at 32 ug/ml soluble peptidoglycan; type: functional
Staphylococcus sp. [28] = assay: In vitro antimicrobial activity against Coagulase-negative staphylococcus GC 4538 at 32 ug/ml soluble peptidoglycan; type: functional
[29] = The inhibitory activity of compound against MraY or MurG at 12.5 ug/mL; No inhibition
[30] = The inhibitory activity of compound against MraY or MurG at 6.25 ug/mL; No inhibition
[31] = The inhibitory activity of compound against MraY or MurG at 50 ug/mL; No inhibition
[32] = The inhibitory activity of compound against MraY or MurG at 25 ug/mL; No inhibition

Row | SMILES | Inhibitory activity [2] | Inhibitory activity [5] | MIC (Bacteria) [µg/mL] | MIC (Enterococcus faecalis [19]) [µg/mL] | MIC (Staphylococcus aureus [20]) [µg/mL] | MIC (Staphylococcus sp. [21]) [µg/mL] | MIC (Enterococcus faecalis [22]) [µg/mL] | MIC (Staphylococcus aureus [23]) [µg/mL] | MIC (Enterococcus faecalis [24]) [µg/mL] | MIC (Staphylococcus sp. [25]) [µg/mL] | MIC (Staphylococcus aureus [26]) [µg/mL] | MIC (Candida albicans [27]) [µg/mL] | MIC (Staphylococcus sp. [28]) [µg/mL] | also measured
1 | COC1C(O)[C@@H](OC(C(NCCCNC(=O)[C@H](NC(=O)[C@@H](NC(=O)N[C@H](C(=O)O)C(C)C)C2CCN=C(N)N2)C(O)C(C)C)C(=O)O)[C@H]2O[C@@H](n3ccc(=O)[nH]c3=O)[C@H](O)[C@@H]2O)O[C@H]1CN (stereo partly drawn) | Inhibit | Inhibit |  |  |  |  |  |  |  |  |  |  |  | Inhibitory activity [1]: Inhibit; Inhibitory activity [3]: Inhibit; Inhibitory activity [4]: Inhibit
2 | COc1ccc(Cn2c(=O)ccn([C@@H]3OC([C@@H](O)[C@H](NCCCNC(=O)[C@H](N)C(O)C(C)C)C(=O)OC(C)(C)C)[C@@H](O[Si](C)(C)C(C)(C)C)[C@H]3O[Si](C)(C)C(C)(C)C)c2=O)cc1 (stereo partly drawn) | Inhibit | Inhibit | > 128 |  |  |  |  |  |  |  |  |  |  | MIC (Enterococcus faecalis [6]): 128 µg/mL (≈ 141 µM); MIC (Staphylococcus aureus [7]): 128 µg/mL (≈ 141 µM); Inhibitory activity [8]: inactive; Inhibitory activity [9]: inactive; MIC (Enterococcus faecalis [10]): > 128 µg/mL; MIC (Staphylococcus sp. [11]): 128 µg/mL (≈ 141 µM); MIC (Staphylococcus aureus [12]): 128 µg/mL (≈ 141 µM); MIC (Staphylococcus sp. [13]): 128 µg/mL (≈ 141 µM); MIC (Candida albicans [14]): 128 µg/mL (≈ 141 µM); MIC (Enterococcus faecalis [15]): 128 µg/mL (≈ 141 µM); Inhibitory activity [16]: inactive; MIC (Staphylococcus aureus [17]): 128 µg/mL (≈ 141 µM); MIC (Staphylococcus sp. [18]): 8 µg/mL (≈ 8.81 µM)
3 | COc1ccc(Cn2c(=O)ccn([C@@H]3OC([C@H](O)[C@H](NCCCNC(=O)[C@H](NC(=O)OCc4ccccc4)C(C)O)C(=O)OC(C)(C)C)[C@@H](O[Si](C)(C)C(C)(C)C)[C@H]3O[Si](C)(C)C(C)(C)C)c2=O)cc1 (stereo partly drawn) |  |  | > 128 | 128 (≈ 126 µM) | > 128 | > 128 | > 128 | > 128 | > 128 | > 128 | > 128 | 128 (≈ 126 µM) | > 128 | 
4 | COc1ccc(Cn2c(=O)ccn([C@@H]3OC([C@H](O)[C@H](NCCCNC(=O)[C@H](N)C(C)O)C(=O)OC(C)(C)C)[C@@H](O[Si](C)(C)C(C)(C)C)[C@H]3O[Si](C)(C)C(C)(C)C)c2=O)cc1 (stereo partly drawn) | Inhibit |  | > 128 | 4 (≈ 4.54 µM) | 4 (≈ 4.54 µM) | 4 (≈ 4.54 µM) | 8 (≈ 9.09 µM) | 8 (≈ 9.09 µM) | 4 (≈ 4.54 µM) | 8 (≈ 9.09 µM) | 4 (≈ 4.54 µM) | > 128 | 4 (≈ 4.54 µM) | Inhibitory activity [29]: inactive; Inhibitory activity [30]: inactive; Inhibitory activity [31]: inactive; Inhibitory activity [32]: inactive
